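Exposure lasted 48 hours, with cells grown in 96-well plates and compounds tested at five concentrations. GI50 marks 50% less growth. TGI: total growth inhibition.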
Columns and labels:
Assay in all cases: growth of human tumour cells (NCI), 48 h
786-0 renal = test system: 786-0 renal
A498 renal = test system: A498 renal
A549 NSCLC = test system: A549 NSCLC
ACHN renal = test system: ACHN renal
BT-549 breast = test system: BT-549 breast
CAKI-1 renal = test system: CAKI-1 renal
CCRF-CEM leukemia = test system: CCRF-CEM leukemia
COLO 205 colon = test system: COLO 205 colon
DU-145 prostate = test system: DU-145 prostate
EKVX NSCLC = test system: EKVX NSCLC
HCC-2998 colon = test system: HCC-2998 colon
HCT-116 colon = test system: HCT-116 colon
HCT-15 colon = test system: HCT-15 colon
HL-60(TB) leukemia = test system: HL-60(TB) leukemia
HOP-62 NSCLC = test system: HOP-62 NSCLC
HOP-92 NSCLC = test system: HOP-92 NSCLC
HS 578T breast = test system: HS 578T breast
HT29 colon = test system: HT29 colon
IGROV1 ovarian = test system: IGROV1 ovarian
K-562 leukemia = test system: K-562 leukemia
KM12 colon = test system: KM12 colon
LOX IMVI melanoma = test system: LOX IMVI melanoma
M14 melanoma = test system: M14 melanoma
MALME-3M melanoma = test system: MALME-3M melanoma
MCF7 breast = test system: MCF7 breast
MDA-MB-231 breast = test system: MDA-MB-231 breast
MDA-MB-435 = test system: MDA-MB-435
MOLT-4 leukemia = test system: MOLT-4 leukemia
NCI-H226 lung = test system: NCI-H226 lung
NCI-H23 lung = test system: NCI-H23 lung
NCI-H460 lung = test system: NCI-H460 lung
NCI-H522 lung = test system: NCI-H522 lung
NCI/ADR-RES ovarian = test system: NCI/ADR-RES ovarian
OVCAR-3 ovarian = test system: OVCAR-3 ovarian
OVCAR-4 ovarian = test system: OVCAR-4 ovarian
OVCAR-5 ovarian = test system: OVCAR-5 ovarian
OVCAR-8 ovarian = test system: OVCAR-8 ovarian
PC-3 prostate = test system: PC-3 prostate
RPMI-8226 leukemia = test system: RPMI-8226 leukemia
RXF 393 renal = test system: RXF 393 renal
SF-268 CNS = test system: SF-268 CNS
SF-295 CNS = test system: SF-295 CNS
SF-539 CNS = test system: SF-539 CNS
SK-MEL-2 melanoma = test system: SK-MEL-2 melanoma
SK-MEL-28 melanoma = test system: SK-MEL-28 melanoma
SK-MEL-5 melanoma = test system: SK-MEL-5 melanoma
SK-OV-3 ovarian = test system: SK-OV-3 ovarian
SN12C renal = test system: SN12C renal
SNB-19 CNS = test system: SNB-19 CNS
SR leukemia = test system: SR leukemia
SW-620 colon = test system: SW-620 colon
T-47D breast = test system: T-47D breast
TK-10 renal = test system: TK-10 renal
U251 CNS = test system: U251 CNS
UACC-257 melanoma = test system: UACC-257 melanoma
UACC-62 melanoma = test system: UACC-62 melanoma
UO-31 renal = test system: UO-31 renal

C#CCOc1ccc2ncnc(Nc3ccc(NC(=O)C=C)cc3)c2c1
GI50 (786-0 renal): 11.9 µM
TGI (786-0 renal): 38.2 µM
GI50 (A498 renal): > 100 µM
TGI (A498 renal): > 100 µM
GI50 (A549 NSCLC): > 100 µM
TGI (A549 NSCLC): > 100 µM
GI50 (ACHN renal): 28.2 µM
TGI (ACHN renal): > 100 µM
GI50 (BT-549 breast): 39.3 µM
TGI (BT-549 breast): > 100 µM
GI50 (CAKI-1 renal): > 100 µM
TGI (CAKI-1 renal): > 100 µM
GI50 (CCRF-CEM leukemia): 4.26 µM
TGI (CCRF-CEM leukemia): 40.8 µM
GI50 (COLO 205 colon): 15.6 µM
TGI (COLO 205 colon): 91.5 µM
GI50 (DU-145 prostate): 25.4 µM
TGI (DU-145 prostate): > 100 µM
GI50 (EKVX NSCLC): > 100 µM
TGI (EKVX NSCLC): > 100 µM
GI50 (HCC-2998 colon): > 100 µM
TGI (HCC-2998 colon): > 100 µM
GI50 (HCT-116 colon): 10.9 µM
TGI (HCT-116 colon): 35.9 µM
GI50 (HCT-15 colon): 19.2 µM
TGI (HCT-15 colon): > 100 µM
GI50 (HL-60(TB) leukemia): 4.97 µM
TGI (HL-60(TB) leukemia): 32.5 µM
GI50 (HOP-62 NSCLC): > 100 µM
TGI (HOP-62 NSCLC): > 100 µM
GI50 (HOP-92 NSCLC): 7.84 µM
TGI (HOP-92 NSCLC): 52.7 µM
GI50 (HS 578T breast): 62 µM
TGI (HS 578T breast): > 100 µM
GI50 (HT29 colon): 30.6 µM
TGI (HT29 colon): > 100 µM
GI50 (IGROV1 ovarian): 49.8 µM
TGI (IGROV1 ovarian): > 100 µM
GI50 (K-562 leukemia): 3.38 µM
TGI (K-562 leukemia): 23.6 µM
GI50 (KM12 colon): 34.6 µM
TGI (KM12 colon): > 100 µM
GI50 (LOX IMVI melanoma): 3.92 µM
TGI (LOX IMVI melanoma): 17.5 µM
GI50 (M14 melanoma): 34.4 µM
TGI (M14 melanoma): > 100 µM
GI50 (MALME-3M melanoma): 6.23 µM
TGI (MALME-3M melanoma): 30.2 µM
GI50 (MCF7 breast): 2.98 µM
TGI (MCF7 breast): > 100 µM
GI50 (MDA-MB-231 breast): 29 µM
TGI (MDA-MB-231 breast): > 100 µM
GI50 (MDA-MB-435): 36.2 µM
TGI (MDA-MB-435): > 100 µM
GI50 (MOLT-4 leukemia): 28.4 µM
TGI (MOLT-4 leukemia): > 100 µM
GI50 (NCI-H226 lung): > 100 µM
TGI (NCI-H226 lung): > 100 µM
GI50 (NCI-H23 lung): > 100 µM
TGI (NCI-H23 lung): > 100 µM
GI50 (NCI-H460 lung): > 100 µM
TGI (NCI-H460 lung): > 100 µM
GI50 (NCI-H522 lung): 11.8 µM
TGI (NCI-H522 lung): 39.7 µM
GI50 (NCI/ADR-RES ovarian): > 100 µM
TGI (NCI/ADR-RES ovarian): > 100 µM
GI50 (OVCAR-3 ovarian): 8.24 µM
TGI (OVCAR-3 ovarian): > 100 µM
GI50 (OVCAR-4 ovarian): > 100 µM
TGI (OVCAR-4 ovarian): > 100 µM
GI50 (OVCAR-5 ovarian): > 100 µM
TGI (OVCAR-5 ovarian): > 100 µM
GI50 (OVCAR-8 ovarian): 45.8 µM
TGI (OVCAR-8 ovarian): > 100 µM
GI50 (PC-3 prostate): 70.4 µM
TGI (PC-3 prostate): > 100 µM
GI50 (RPMI-8226 leukemia): 2.63 µM
TGI (RPMI-8226 leukemia): 7.44 µM
GI50 (RXF 393 renal): 15.2 µM
TGI (RXF 393 renal): 58.8 µM
GI50 (SF-268 CNS): 71.3 µM
TGI (SF-268 CNS): > 100 µM
GI50 (SF-295 CNS): > 100 µM
TGI (SF-295 CNS): > 100 µM
GI50 (SF-539 CNS): 9.76 µM
TGI (SF-539 CNS): 39.6 µM
GI50 (SK-MEL-2 melanoma): > 100 µM
TGI (SK-MEL-2 melanoma): > 100 µM
GI50 (SK-MEL-28 melanoma): 23.6 µM
TGI (SK-MEL-28 melanoma): > 100 µM
GI50 (SK-MEL-5 melanoma): > 100 µM
TGI (SK-MEL-5 melanoma): > 100 µM
GI50 (SK-OV-3 ovarian): > 100 µM
TGI (SK-OV-3 ovarian): > 100 µM
GI50 (SN12C renal): 44 µM
TGI (SN12C renal): > 100 µM
GI50 (SNB-19 CNS): > 100 µM
TGI (SNB-19 CNS): > 100 µM
GI50 (SR leukemia): 3.47 µM
TGI (SR leukemia): 57.4 µM
GI50 (SW-620 colon): 6.3 µM
TGI (SW-620 colon): 33.1 µM
GI50 (T-47D breast): 3.53 µM
TGI (T-47D breast): > 100 µM
GI50 (TK-10 renal): 2.62 µM
TGI (TK-10 renal): 9.03 µM
GI50 (U251 CNS): 79.3 µM
TGI (U251 CNS): > 100 µM
GI50 (UACC-257 melanoma): 56.9 µM
TGI (UACC-257 melanoma): > 100 µM
GI50 (UACC-62 melanoma): 47.3 µM
TGI (UACC-62 melanoma): > 100 µM
GI50 (UO-31 renal): 11.6 µM
TGI (UO-31 renal): 44.4 µM
